Laboratory results taken from US20170283340A1, “ALKYL THIOPHOSPHORIC TRIAMIDE AND NEEM OIL SOLVENT SYSTEMS FOR USE IN AGRICULTURAL APPLICATIONS” (RHODIA OPERATIONS, priority 2016, published 2017).

Tests used:
[1] = Thermal stability of NBPT at high temperature; assay type: physicochemical; details: followed by sludge/precipitate formation after weeks of high heat
Protocol: Another problem is that certain nitrification inhibitors and/or urease inhibitors degrade at certain high temperatures. […] Often times temperatures in agricultural fields (e.g., corn fields, wheat fields, etc.) reach in excess of 35° C. and sometimes can reach up to 45° C. or higher. For example, at 45° C. […] Thus, it is also desirable to have solvent systems containing nitrification inhibitors and/or urease inhibitors that are stabilized at high temperatures, such as those utilized in hot climates or weather. This invention addresses the addition of co-solvents and/or stabilizers to prolong the chemical and physical stability of formulated liquid agricultural compositions containing (i) one or more nitrification inhibitors, (ii) one or more urease inhibitors or (iii) a combination of both (i) and (ii). In one embodiment, the at least one urease inhibitor is NBPT. In one embodiment, the at least one nitrification inhibitor a natural nitrification inhibitor. In yet another embodiment, the at least one nitrification inhibitor is neem.

[2] = typically above 45° C.; cited from earlier work
[3] = cited from earlier work

Row | SMILES | appearance of NBPT formulated in different solvents at 45° C. [1] | degradation at higher temperature [2] | solubility in water [3]
1 | CCCCNP(N)(N)=S [NBPT, N-(n-butyl)-thiophosphoric triamide] | changes color in days from colorless to a darker green/brown | degrades rapidly | 
2 | N#CNC(=N)N [dicyandiamide, Dicyandiamide] |  |  | about 41 g/l
